Source: ChEMBL document CHEMBL2163249, “Exploration of natural compounds as sources of new bifunctional scaffolds targeting cholinesterases and beta amyloid aggregation: the case of chelerythrine” (Bioorg Med Chem, 2012)

Key:
[1] = molecular target: Acetylcholinesterase (Electrophorus electricus) (UniProt O42275); conditions: at 2 mg/mL
Description: Inhibition of electric eel AChE at 2 mg/ml by Ellman's method

[2] = molecular target: Cholinesterase (Equus caballus) (UniProt P81908); conditions: at 2 mg/mL
Sequence of Cholinesterase (Equus caballus) (P81908 whole entry): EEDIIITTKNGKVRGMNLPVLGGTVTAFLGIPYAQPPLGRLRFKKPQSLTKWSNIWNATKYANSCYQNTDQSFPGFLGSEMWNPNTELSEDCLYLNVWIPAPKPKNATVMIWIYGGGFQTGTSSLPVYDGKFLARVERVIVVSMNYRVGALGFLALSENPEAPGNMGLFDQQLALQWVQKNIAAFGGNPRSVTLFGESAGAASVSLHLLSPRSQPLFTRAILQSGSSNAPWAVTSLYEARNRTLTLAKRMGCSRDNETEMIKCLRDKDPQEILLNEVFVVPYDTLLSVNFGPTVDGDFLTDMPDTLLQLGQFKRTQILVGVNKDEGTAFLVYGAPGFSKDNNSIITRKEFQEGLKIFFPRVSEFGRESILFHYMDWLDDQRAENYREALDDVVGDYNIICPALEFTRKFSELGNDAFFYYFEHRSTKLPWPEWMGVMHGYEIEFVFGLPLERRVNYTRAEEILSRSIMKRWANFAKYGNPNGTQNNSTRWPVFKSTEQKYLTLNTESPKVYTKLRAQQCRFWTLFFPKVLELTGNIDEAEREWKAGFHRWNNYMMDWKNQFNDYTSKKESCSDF
Description: Inhibition of horse BChE at 2 mg/ml by Ellman's method

Row | Molecule | inhibition [1] [%] | inhibition [2] [%]
1 | C=CCc1cc(OC)c2c(c1)OCO2 | 6.75 | -9.87
2 | C=C1[C@@H](C)[C@H]2[C@H](Cc3ccccc3)NC(=O)[C@]23OC(=O)/C=C/[C@H](O)CCC[C@@H](C)C/C=C/[C@H]3[C@@H]1O | -2.03 | 8.94
3 | COc1cc(O)c2c(c1)oc(=O)c1c3cc(O)c(O)cc3oc21 | 11.8 | 11.1
4 | COc1ccc2c3c4n(c2c1)[C@H](C=C(C)C)OOC(C)(C)C[C@@H]4N1C(=O)[C@@H]2CCCN2C(=O)[C@]1(O)[C@H]3O | 1.5 | 18
5 | O=C(/C=C/c1ccc(O)c(O)c1)c1ccc(O[C@@H]2O[C@H](CO)[C@@H](O)[C@H](O)[C@H]2O)c(O)c1O | 22.2 | 2.03
6 | CC(=O)O[C@H]1CC[C@]2(C=O)[C@H]3CC[C@]4(C)[C@@H](C5=CC(=O)OC5)CC[C@]4(O)[C@@H]3CC[C@]2(O)C1 | -2.93 | -2.95
7 | Cc1c2c(c(O)c3c(O)cccc13)C(=O)O[C@H]2[C@@H]1[C@H](O)C(=O)C(C(N)=O)=C(O)[C@H]1N(C)C | 16.9 | 7.3
8 | Cc1cccc2c3c(ccc12)C1=C(C(=O)C3=O)[C@@H](C)CO1 | 3.53 | -3.19
9 | CO[C@H]1/C=C/O[C@@]2(C)Oc3c(C)c(O)c4c(O)c(cc(O)c4c3C2=O)NC(=O)/C(C)=C\C=C\[C@H](C)[C@H](O)[C@@H](C)[C@@H](O)[C@@H](C)[C@H](OC(C)=O)[C@@H]1C | -6.18 | -3.13
10 | C[C@H]1C(=O)O[C@@H]2CCN3CC=C(COC(=O)[C@](C)(O)[C@]1(C)O)[C@H]23 | 19.5 | 4.32
11 | CCN1C[C@]2(C)CC[C@H](O)[C@]34C1[C@@H](C[C@H]23)[C@@]1(O)C[C@H](OC)[C@H]2C[C@@H]4[C@@H]1[C@H]2O | 20 | -5.97
12 | O=C1C=C2C(=CCOC2O)O1 (stereo unspecified) | 5.33 | -1.78
13 | C[C@@H]1O[C@@H](OC[C@H]2O[C@@H](Oc3cc(O)c4c(c3)O[C@H](c3ccc(O)c(O)c3)CC4=O)[C@H](O)[C@@H](O)[C@@H]2O)[C@H](O)[C@H](O)[C@H]1O | 21.5 | 1.98
14 | O=C1C[C@@H]2OCC=C3CN4CC[C@]56c7ccccc7N1[C@H]5[C@H]2[C@H]3C[C@H]46 | 12.2 | 32.4
15 | CC1=C(O)C(=O)C=C2C1=CC=C1[C@@]2(C)CC[C@@]2(C)[C@@H]3C[C@](C)(C(=O)O)CC[C@]3(C)CC[C@]12C | 22.1 | 1.01
16 | COc1ccc(C[C@H]2c3cc(OC)c(OC)cc3CC[N+]2(C)C)cc1OC | 28.5 | 2.85
17 | COc1cc2c(cc1CC=C(C)C)C(=O)C[C@@H](c1ccc(O)cc1)O2 | 23.2 | 4.89
18 | O=c1c(O)c(-c2ccc(O)c(O)c2)oc2cc(O)cc(O)c12 | 18.1 | 6.73
19 | CCCC[N+]1(C)[C@@H]2C[C@@H](OC(=O)[C@H](CO)c3ccccc3)C[C@H]1[C@@H]1O[C@@H]12 (stereo partly specified) | 22.5 | -4.42
20 | Cc1c2ccncc2c(C)c2c1[nH]c1ccccc12 | -1.87 | 44.1
21 | C[C@H]1[C@H](C)CC[C@]2(C(=O)O)CC[C@]3(C)C(=CC[C@@H]4[C@@]5(C)CC[C@H](O)C(C)(C)[C@@H]5CC[C@]43C)[C@H]12 | 16.8 | 5.32
22 | CC(C)=CCCC1=CC(=O)c2c(O)ccc(O)c2C1=O | 1.52 | -2.66
23 | O=C1C[C@@H](c2ccc(O)c(O)c2)Oc2c1ccc(O[C@@H]1O[C@H](CO)[C@@H](O)[C@H](O)[C@H]1O)c2O | 8.08 | 3.1
24 | N#C[C@H](O[C@@H]1O[C@H](CO[C@@H]2O[C@H](CO)[C@@H](O)[C@H](O)[C@H]2O)[C@@H](O)[C@H](O)[C@H]1O)c1ccccc1 | 0.78 | 5.7

Row | Molecule | inhibition [1] [%] | inhibition [2] [%]
25 | CC(C)[C@@]1(NC(=O)[C@@H]2C[C@@H]3c4cccc5[nH]cc(c45)C[C@H]3N(C)C2)O[C@@]2(O)[C@@H]3CCCN3C(=O)[C@H](Cc3ccccc3)N2C1=O | -1.54 | 0.35
26 | CC1=NCCc2c1[nH]c1cc(O)ccc21 | 41.8 | 34.5
27 | O=c1c(O)c(-c2ccccc2O)oc2cc(O)cc(O)c12 | 23 | 1.68
28 | COc1c2c(nc3ccccc13)OC(C(C)(O)CO)C2 (stereo unspecified) | 22.5 | -2.71
29 | CC(C)=CCC/C(C)=C/CC/C(C)=C/CC/C(C)=C/C(=O)O | -5.57 | -2.05
30 | CC1=C(/C=C/C(C)=C/C=C/C(C)=C/C(=O)O)C(C)(C)CCC1 | 9.3 | -0.7
31 | c1coc(CNc2ncnc3[nH]cnc23)c1 | -5.12 | 3.13
32 | C[C@@H]1[C@H](O)[C@@H](C)/C=C/C=C/C=C/C=C/C=C/C=C/C=C/[C@H](O[C@@H]2O[C@H](C)[C@@H](O)[C@H](N)[C@@H]2O)C[C@@H]2O[C@](O)(C[C@@H](O)C[C@@H](O)[C@H](O)CC[C@@H](O)C[C@@H](O)CC(=O)O[C@H]1C)C[C@H](O)[C@H]2C(=O)O | 8.91 | 11.9
33 | C[C@H]1C(=O)CC[C@@H]2[C@]1(C)CC[C@H]1[C@@]2(C)CC[C@@]2(C)[C@@H]3CC(C)(C)CC[C@]3(C)CC[C@]12C | -3.69 | -0.57
34 | COc1ccc(C[C@H]2NC[C@H](O)[C@H]2OC(C)=O)cc1 | -1.2 | -3.31
35 | COc1cc(C2Oc3cc([C@H]4Oc5cc(O)cc(O)c5C(=O)[C@@H]4O)ccc3OC2CO)ccc1O (stereo partly specified) | 7.08 | -7.94
36 | CC(C)(O)[C@@H]1[C@H]2OC(=O)[C@@H]1[C@]1(O)C[C@H]3O[C@]34C(=O)O[C@H]2[C@]14C | 22.6 | 1.96
37 | C[C@H]1CC[C@@H]2N(C1)C[C@H]1[C@@H]3C[C@H]4[C@@H](CC(=O)[C@H]5C[C@@H](O)CC[C@@]54C)[C@@H]3CC[C@H]1[C@]2(C)O | 24.9 | 6.5
38 | COc1cc(-c2oc3cc(O)cc(O)c3c(=O)c2O)ccc1O | 5.76 | -2.06
39 | CCN1C[C@]2(COC)CC[C@H](OC)[C@]34C1[C@H]([C@H](OC)[C@H]23)[C@@]1(OC(C)=O)C[C@H](OC)[C@@]2(O)C[C@@H]4[C@@H]1[C@H]2C(=O)c1ccc(OC)cc1 | 3.52 | 9.36
40 | Cc1cc(O)c2c(c1)C(=O)c1cc(O)cc(O)c1C2=O | 24.3 | 1.03
41 | NEOMYCIN SULFATE | -9.42 | 10.5
42 | COC(=O)[C@H]1[C@H]2C[C@@H]3c4[nH]c5cc(OC)ccc5c4CCN3C[C@H]2C[C@@H](OC(=O)c2cc(OC)c(OC)c(OC)c2)[C@@H]1OC | 5.06 | 15.3
43 | COc1ccc(-c2coc3cc(O)cc(O)c3c2=O)cc1 | 2.29 | -9.1
44 | C[n+]1cccc(C(=O)[O-])c1 | -1.47 | -5.02
45 | COc1cccc2c1C(=O)c1c(O)c3c(c(O)c1C2=O)C[C@@](O)(C(=O)CO)C[C@@H]3O[C@H]1C[C@H](N)[C@H](O)[C@H](C)O1 | 10.4 | 1.2
46 | CC1(C)C2CCC1(C(=O)O)C(=O)C2 (stereo unspecified) | 16.7 | -2.51
47 | N[C@H]1CONC1=O | 1.18 | -5.13
48 | COc1cc2c(cc1OC)[C@H]1[C@@H](C)c3ccc(OC)c(OC)c3CN1CC2 | 13.9 | -0.53
